Source: paper PMC6271825, “Synthesis and Cytotoxic Activity Evaluation of Novel Arylpiperazine Derivatives on Human Prostate Cancer Cell Lines” (Molecules, 2014)

Assays:
Assay type in all cases: cell-based
DU145 cells = experiment: CCK-8 in vitro cytotoxicity assay, DU145; settings: DU-145; human prostate cancer cell line DU145, CCK-8, 24 h exposure, mean ± SD of three experiments
Procedure: (§1) The synthesized target compounds 5 to 29 were evaluated for their in vitro cytotoxic activities against the three human prostate cancer cell lines (PC-3, LNCaP, and DU145), and compared with their effects on human prostate epithelial cell line RWPE-1 by CCK-8 assay.
(§2) PC-3 and RWPE-1 cells were cultured in Dulbecco’s modification Eagle’s medium (DMEM, Invitrogen, Carlsbad, CA, USA) supplemented with 10% fetal bovine serum (FBS, Hyclone, Logan, UT, USA), 100 U/mL penicillin and 0.1 mg/mL streptomycin (Invitrogen). DU145 cells were cultured in RPMI1640 media supplemented with 10% fetal bovine serum (FBS, Hyclone), 100 U/mL penicillin and 0.1 mg/mL streptomycin (Invitrogen). LNCaP cells were cultured in F12 media supplemented with 10% fetal bovine serum (FBS, Hyclone), 100 U/mL penicillin and 0.1 mg/mL streptomycin (Invitrogen). The cells were incubated at 37 °C in a humidified atmosphere with 5% CO2.
(§3) Cell proliferation was measured with the Cell Counting Kit-8 (CCK-8) assay kit (Dojindo Corp., Kumamoto, Japan). Cells were harvested during logarithmic growth phase and seeded in 96-well plates at a density of 1 × 10^5 cells/mL, and cultured at 37 °C in a humidified incubator (5% CO2) for 24 h, followed by exposure to various concentrations of compounds tested for 24 h. Subsequently 10 μL of CCK-8 (Dojindo) was added to each well, the cells were then incubated for an additional 1 h at 37 °C to convert WST-8 into formazan. Cell growth inhibition was determined by measuring the absorbance (Abs) at λ = 450 nm using amicroplate reader. Three independent experiments were performed. Cell growth inhibition was calculated according to the following equation: Growth inhibition = (1 − OD of treated cells/OD of control cells) × 100%
(§4) The half maximal inhibitory concentrations (IC50) were obtained from linear regression analysis of the concentration-response curves plotted for each tested compound.

PC-3 cells = experiment: CCK-8 in vitro cytotoxicity assay, PC-3; settings: human prostate cancer cell line PC-3, CCK-8, 24 h exposure, mean ± SD of three experiments
Procedure: as §1, §2, §3, §4

RWPE-1 cells = experiment: CCK-8 in vitro cytotoxicity assay, RWPE-1 normal prostate epithelial cells; settings: human prostate epithelial cell line RWPE-1 (normal), CCK-8, 24 h exposure, mean ± SD of three experiments
Procedure: as §1, §2, §3, §4

LNCaP cells = experiment: CCK-8 in vitro cytotoxicity assay, LNCaP; settings: human prostate cancer cell line LNCaP, CCK-8, 24 h exposure, mean ± SD of three experiments
Procedure: as §1, §2, §3, §4

Compound | IC50 (DU145 cells) [µM] | IC50 (PC-3 cells) [µM] | IC50 (RWPE-1 cells) [µM] | IC50 (LNCaP cells; Homo sapiens, LNCaP, 24 h) [µM] | IC50 (LNCaP cells) [µM]
CC(=O)c1ccc(N2CCN(CCc3ccc(COc4ccc5c(c4)OCO5)cc3)CC2)cc1 [Compound 27, 1-(4-(4-(2-(4-((Benzo[d][1,3]dioxol-5-yloxy)methyl)phenyl)ethyl)piperazin-1-yl)phenyl)ethanone] | > 50 | 24.9 ± 0.68 | 26.8 ± 3.01 | > 50 | 
COc1cccc(N2CCN(CCc3ccc(COc4ccc5c(c4)OCO5)cc3)CC2)c1 [Compound 14, 1-(2-(4-((Benzo[d][1,3]dioxol-5-yloxy)methyl)phenyl)ethyl)-4-(3-methoxyphenyl)piperazine] | > 50 | > 50 | 39 ± 0.77 | > 50 | 
OC1(c2ccccc2)CCN(CCc2ccc(COc3ccc4c(c3)OCO4)cc2)CC1 [Compound 29, 1-(2-(4-((Benzo[d][1,3]dioxol-5-yloxy)methyl)phenyl)ethyl)-4-phenylpiperidin-4-ol] | 38.2 ± 2.45 | > 50 | 19.73 ± 0.01 | 43 ± 7.58 | 
COc1ccc(Cl)cc1N1CCN(CCc2ccc(COc3ccc4c(c3)OCO4)cc2)CC1 [Compound 23, 1-(2-(4-((Benzo[d][1,3]dioxol-5-yloxy)methyl)phenyl)ethyl)-4-(5-chloro-2-methoxyphenyl)piperazine] | > 50 | > 50 | 35.9 ± 1.25 | 33.2 ± 2.69 | 
COc1ccccc1N1CCN(CC(O)COc2cccc3ccccc23)CC1 (centres unmarked) [naftopidil, reference compound] | 34.58 ± 0.31 | 42.1 ± 0.79 | > 50 | 22.4 ± 0.61 | 
COc1ccc(N2CCN(CCc3ccc(COc4ccc5c(c4)OCO5)cc3)CC2)cc1 [Compound 13, 1-(2-(4-((Benzo[d][1,3]dioxol-5-yloxy)methyl)phenyl)ethyl)-4-(4-methoxyphenyl)piperazine] | > 50 | > 50 | > 50 | 28.3 ± 0.49 | 
Clc1cccc(N2CCN(CCc3ccc(COc4ccc5c(c4)OCO5)cc3)CC2)c1 [Compound 21, 1-(2-(4-((Benzo[d][1,3]dioxol-5-yloxy)methyl)phenyl)ethyl)-4-(3-chlorophenyl)piperazine] | > 50 | > 50 | > 50 | 25.3 ± 1.55 | 
c1ccc(N2CCN(CCc3ccc(COc4ccc5c(c4)OCO5)cc3)CC2)nc1 [Compound 7, 1-(2-(4-((Benzo[d][1,3]dioxol-5-yloxy)methyl)phenyl)ethyl)-4-(pyridin-2-yl)piperazine] | > 50 | > 50 | 41.1 ± 0.54 | 31.2 ± 0.63 | 
Cc1cccc(N2CCN(CCc3ccc(COc4ccc5c(c4)OCO5)cc3)CC2)c1 [Compound 11, 1-(2-(4-((Benzo[d][1,3]dioxol-5-yloxy)methyl)phenyl)ethyl)-4-m-tolylpiperazine] | > 50 | > 50 | > 50 | > 50 | 
c1cnc(N2CCN(CCc3ccc(COc4ccc5c(c4)OCO5)cc3)CC2)nc1 [Compound 8, 2-(4-(2-(4-((Benzo[d][1,3]dioxol-5-yloxy)methyl)phenyl)ethyl)piperazin-1-yl)pyrimidine] | 8.25 ± 0.16 | > 50 | 31.7 ± 3.14 | 26.6 ± 0.86 | 
Clc1ccccc1N1CCN(CCc2ccc(COc3ccc4c(c3)OCO4)cc2)CC1 [Compound 19, 1-(2-(4-((Benzo[d][1,3]dioxol-5-yloxy)methyl)phenyl)ethyl)-4-(2-chlorophenyl)piperazine] | > 50 | > 50 | 29.9 ± 0.8 | 26.6 ± 0.4 | 
Clc1ccc(N2CCN(CCc3ccc(COc4ccc5c(c4)OCO5)cc3)CC2)cc1 [Compound 20, 1-(2-(4-((Benzo[d][1,3]dioxol-5-yloxy)methyl)phenyl)ethyl)-4-(4-chlorophenyl)piperazine] | > 50 | > 50 | > 50 | > 50 | 
FC(F)(F)c1ccccc1N1CCN(CCc2ccc(COc3ccc4c(c3)OCO4)cc2)CC1 [Compound 25, 1-(2-(4-((Benzo[d][1,3]dioxol-5-yloxy)methyl)phenyl)ethyl)-4-(2-(trifluoromethyl)phenyl)piperazine] | > 50 | > 50 | 18.9 ± 3.68 | 32.96 ± 0.21 | 
Fc1ccc(N2CCN(CCc3ccc(COc4ccc5c(c4)OCO5)cc3)CC2)cc1 [Compound 16, 1-(2-(4-((Benzo[d][1,3]dioxol-5-yloxy)methyl)phenyl)ethyl)-4-(4-fluorophenyl)piperazine] | > 50 | > 50 | > 50 | 32.5 ± 1.04 | 
N#Cc1ccc(N2CCN(CCc3ccc(COc4ccc5c(c4)OCO5)cc3)CC2)c(F)c1 [Compound 18, 4-(4-(2-(4-((Benzo[d][1,3]dioxol-5-yloxy)methyl)phenyl)ethyl)piperazin-1-yl)-3-fluorobenzonitrile] | > 50 | 26.9 ± 1 | > 50 | 13.1 ± 0.51 | 
COc1ccccc1N1CCN(CCc2ccc(COc3ccc4c(c3)OCO4)cc2)CC1 [Compound 12, 1-(2-(4-((Benzo[d][1,3]dioxol-5-yloxy)methyl)phenyl)ethyl)-4-(2-methoxyphenyl)piperazine] | > 50 | > 50 | > 50 | 30.7 ± 0.83 | 
Clc1cccc(N2CCN(CCc3ccc(COc4ccc5c(c4)OCO5)cc3)CC2)c1Cl [Compound 22, 1-(2-(4-((Benzo[d][1,3]dioxol-5-yloxy)methyl)phenyl)ethyl)-4-(2,3-dichlorophenyl)piperazine] | > 50 | > 50 | > 50 | 39.4 ± 0.54 | 
c1ccc(C2CCN(CCc3ccc(COc4ccc5c(c4)OCO5)cc3)CC2)cc1 [Compound 28, 1-(2-(4-((Benzo[d][1,3]dioxol-5-yloxy)methyl)phenyl)ethyl)-4-phenylpiperidine] | 24.7 ± 2.22 | > 50 | 28.5 ± 2.18 | 18.2 ± 1.88 | 
Fc1ccccc1N1CCN(CCc2ccc(COc3ccc4c(c3)OCO4)cc2)CC1 [Compound 15, 1-(2-(4-((Benzo[d][1,3]dioxol-5-yloxy)methyl)phenyl)ethyl)-4-(2-fluorophenyl)piperazine] | > 50 | > 50 | 41 ± 0.47 |  | 
Cc1ccccc1N1CCN(CCc2ccc(COc3ccc4c(c3)OCO4)cc2)CC1 [Compound 9, 1-(2-(4-((Benzo[d][1,3]dioxol-5-yloxy)methyl)phenyl)ethyl)-4-o-tolylpiperazine] | > 50 | > 50 | 31 ± 1.57 | < 5 | 3.47 ± 0.36
Cc1ccc(N2CCN(CCc3ccc(COc4ccc5c(c4)OCO5)cc3)CC2)cc1 [Compound 10, 1-(2-(4-((Benzo[d][1,3]dioxol-5-yloxy)methyl)phenyl)ethyl)-4-p-tolylpiperazine] | 47.8 ± 2.02 | > 50 | > 50 | 31.9 ± 0.89 | 
Brc1ccc(N2CCN(CCc3ccc(COc4ccc5c(c4)OCO5)cc3)CC2)cc1 [Compound 24, 1-(2-(4-((Benzo[d][1,3]dioxol-5-yloxy)methyl)phenyl)ethyl)-4-(4-bromophenyl)piperazine] | > 50 | > 50 | > 50 | 19.9 ± 1.01 | 
c1ccc(CN2CCN(CCc3ccc(COc4ccc5c(c4)OCO5)cc3)CC2)cc1 [Compound 6, 1-(2-(4-((Benzo[d][1,3]dioxol-5-yloxy)methyl)phenyl)ethyl)-4-benzylpiperazine] | 28.9 ± 0.98 | > 50 | 38.8 ± 0.77 | 27.7 ± 4.17 | 
Fc1ccc(N2CCN(CCc3ccc(COc4ccc5c(c4)OCO5)cc3)CC2)c(F)c1 [Compound 17, 1-(2-(4-((Benzo[d][1,3]dioxol-5-yloxy)methyl)phenyl)ethyl)-4-(2,4-difluorophenyl)piperazine] | 26.8 ± 0.92 | > 50 | 23.9 ± 0.75 | 26.8 ± 1 | 
c1ccc(N2CCN(CCc3ccc(COc4ccc5c(c4)OCO5)cc3)CC2)cc1 [Compound 5, 1-(2-(4-((Benzo[d][1,3]dioxol-5-yloxy)methyl)phenyl)ethyl)-4-phenylpiperazine] | > 50 | > 50 | > 50 | 27.9 ± 1.72 | 
FC(F)(F)c1ccc(N2CCN(CCc3ccc(COc4ccc5c(c4)OCO5)cc3)CC2)cc1 [Compound 26, 1-(2-(4-((Benzo[d][1,3]dioxol-5-yloxy)methyl)phenyl)ethyl)-4-(4-(trifluoromethyl)phenyl)piperazine] | > 50 | > 50 | > 50 | 26.8 ± 1.51 | 
